From patent publication US20160228444A1, “NUCLEOSIDE ANALOGS AND USES THEREOF” (Ramot at Tel-Aviv University Ltd., priority 2015, published 2016)
Like-named read-outs stand apart in the source and are kept apart here.

Legend:
bFGF = bFGF protein and mRNA in tumor and heart of xenograft mice (Western blot, qRT-PCR); format: in vivo; settings: for expression of mouse bFGF protein in the heart: FIG. 4D; for expression of bFGF in tumors / bFGF mRNA in the tumor: tumor; for bFGF mRNA in the tumor: FIG. 6
Description: (§1) Tumors and hearts of the mice were rapidly removed, frozen on dry ice and kept at −70° C. Tissue was then homogenized and RNA and proteins extracted using the NucleoSpin® RNA/Protein kit according to the manufacturer's protocol (Macherey-Nagel, GmbH & Co KG).
(§2) Total RNA ([…]) was primed by oligo dT and reverse-transcribed by Verso cDNA kit according to the manufacturer's protocol (Thermo Scientific). Analyses of qPCR were performed with Kapa Sybr® Fast (Kapa Biosystems) on a Step One Plus thermocycler (Applied Biosystems). The comparative threshold method was used to calculate the relative gene expression. Values were normalized against glyceraldehyde 3-phosphate dehydrogenase (GAPDH). Expression of the GAPDH mRNA in each individual sample was used to normalize the dataset. The sequences of the primers were as follows: […]
(§3) Protein levels in the samples were determined with the BCA protein assay kit (Pierce). The samples were subjected to Western blot analyses. The expression of proteins was visualized using their specified primary antibodies followed by the secondary IgG IRDye® 680DX antibody. Each detected band was quantified using the Odyssey Infrared Imaging System (LI-COR Biosciences) and normalized to the level of actin. The fold increase of a specific protein was determined by the ratio of the band intensity obtained from treated and untreated samples.
(§4) The pro-angiogenic factors basic fibroblast growth factor (bFGF) and vascular endothelial growth factor (VEGF) are potent angiogenic stimulators. The expression of bFGF in the tumor and in the heart was evaluated by Western blot and qRT-PCR analyses and expression of VEGF by IHC.

c-Myc = c-Myc and p-c-Myc (Thr 58) Western blot in tumor and heart of xenograft mice; format: in vivo
Description: as §3
The c-Myc protein is an important regulator of normal cell physiology and in tumor cells it plays an important role in activating oncogenic pathways [Soucek & Evan, Curr Opin Genet Dev 2010, 20:91-95].

[1] = system: U251 human glioblastoma xenograft; assay: Glioblastoma xenograft model (survival, body weight, tumor volume, tumor weight, Ki-67); settings: for tumor volume of vehicle-treated group relative to treated group: from day 11, FIG. 3C
Description: Xenograft of glioblastoma: 8- to 10-week-old male Hsd athymic FOXN (Harlan, Jerusalem, Israel) were inoculated sc in the flanks with 5×10^6 U251 cells. Tumor length (L) and width (W) were measured with a caliper twice weekly. Tumor volumes were calculated according to the formula: (L×W2)/2. When the tumor was established (volume of 50-100 mm^3) the mice were randomly divided into six groups treated with: vehicle control (saline); ip Dox 4 mg/kg once weekly; po AN446 25 mg/kg thrice a week; po AN7 50 mg/kg thrice a week; combination of AN446+Dox (4 mg/kg ip Dox once a week and 25 mg/kg po AN446 thrice a week); AN7+Dox (4 mg/kg ip Dox once a week and 50 mg/kg po AN7 thrice weekly). Untreated, non-bearing tumor naive mice were maintained under the same conditions. The experiment was terminated after 25 treatment days, the mice were sacrificed under CO2 and their tumors and hearts were removed, weighed and divided into parts dedicated for immunohistochemistry (IHC) and the rest were frozen (−80° C.) for Western blot and Quantitative PCR (qRT-PCR) analyses.
Inactivation of avidin-biotin nonspecific binding was prevented by a blocking kit, according to the manufacturer's protocol (Vector Laboratories). […] The secondary antibody was biotin conjugated goat anti-rabbit or anti-mouse IgG. Slides were then stained with the ABC peroxidase system, developed with diaminobenzidine (DAB) (Vector Laboratories) and counterstained with hematoxylin (Bio-Optica, Milano, Italy). The slides were examined using an Olympus BX 52 light microscope, and images were taken with an Olympus DP50 digital camera system.
Mice were implanted subcutaneously with U251 cells and when the tumors reached 50-100 mm^3 treatments were initiated. Survival was evaluated by the Kaplan-Meier end-product analysis, where treatment failure (the experimental end points) was a loss of ˜20% body weight, or a tumor volume of >1 cm^3.

HO-1 = HO-1 protein and mRNA in tumor and heart of xenograft mice (Western blot, qRT-PCR); format: in vivo; settings: heart
Description: as §1, §2, §3
The effect of the drugs on the expression of genes associated with cell survival and death was examined by following changes in transcription and protein expression in tissue samples taken from the mice with glioblastoma xenografts. Heme oxygenase (HO-1) is known to play a protective role in the heart, whereas, in many cancers it is expressed and promotes growth and survival of neoplastic cells.

VEGF = VEGF immunohistochemistry in tumor and heart of xenograft mice; format: in vivo; settings: FIG. 4F
Description: as §4

TLR4 [2] = assay: TLR4 gene expression in MDA-MB-231 cells (qRT-PCR); format: cell-based, human; settings: single agent, FIG. 7C
Description: (§5) The effect of AN446 on inflammation-associated pathways was evaluated in the monocytic THP1 cell line and in the MDA-MB-231 breast carcinoma cell line. Supernatants of treated THP1 cells were collected and IL-6, IL-10 and TNF-α concentrations were quantified by ELISA (R&D systems). TLR4 expression in THP1 cells was assessed using fluorescent anti-TLR4 antibodies and FACS analysis. In addition, gene expression for MCP-1, TNF-α and TLR4 in MDA-MB-231 was evaluated by qRT-PCT, following treatment with AN446 and/or paclitaxel.

MDA-231 cells = assay: Median-effect drug interaction, Hoechst viability, 72 h; format: cell-based, human; settings: Homo sapiens
Description: (§6) The ratios of the drug combination were based on the ratio of their IC50 of each drug alone. Cell viability was determined by MTT assay, as described hereinabove. The drugs were added to the cells and incubated for 72 h.
(§7) Drug interaction in adherent cells was evaluated as above except that the viability was determined by Hoechst assay.

[3] = system: NCI-N87 gastric carcinoma cells; assay: as above; format: cell-based, human; settings: Homo sapiens
Description: as §6, §7

T47D cells = assay: as above; format: cell-based, human; settings: Homo sapiens
Description: as §6, §7

TNF-α = TNF-α gene expression in MDA-MB-231 cells (qRT-PCR); format: cell-based, human; settings: single agent, FIG. 7C
Description: as §5

MCP-1 = MCP-1 gene expression in MDA-MB-231 cells (qRT-PCR); format: cell-based, human; settings: single agent, FIG. 7C
Description: as §5

TLR4 [4] = settings: 24 hours, concentrations based on the IC50, FIG. 15
U251 cells = assay: Hoechst viability assay 72 h / median-effect combination study; settings: Homo sapiens, U-251, 72 h, read-out: IC50 value for viability in U251 cells after 72 hours
Description: Hoechst assay: 22RV-1, MCF-7, MCF-7DX, 4T1, U251, and T47D cells (3×10^3 cells/well) and NCI-N87 (8×10^3 cells/well) were seeded in tissue culture in growth medium for 24 h in 96-well plates (in triplicate) and then exposed to different concentrations (titration) of the tested drug for 72 h at 37° C. The plates were then rinsed with PBS and fixed with 100 ml of 70% ethanol for 30 min. […] The fluorescence was measured (excitation at 390 nm and emission at 460 nm) with a Synergy III Fluorometer-Elisa reader (BioTek Instruments, Inc. Germany).
The Median Effect Analysis (MEA) for a constant combination ratio was used for drugs interaction and the combination index (CI) determination.
The average values of three independent experiments were calculated and analyzed with CalcuSyn software.

Compound: CCCC(=O)OCOP(=O)(OCC)OCC [AN7, butyroxymethyl diethylphosphate]
- expression of mouse bFGF protein in the heart (bFGF; co-treatment with Dox): significantly increased its expression to a level higher than that observed in naive or vehicle-treated mice
- expression of mouse bFGF protein in the heart (bFGF; single agent): unchanged
- expression of bFGF in tumors (bFGF; combination with Dox): further diminished
- bFGF mRNA in the tumor (bFGF; combined treatment with Dox): suppressed it significantly further
- bFGF mRNA in the tumor (bFGF; single agent): significantly reduced the bFGF mRNA
- expression of bFGF in tumors (bFGF; single agent, FIGS. 4A, 4B): decreased significantly
- c-Myc protein expression in the hearts (c-Myc; heart, FIG. 5B): not affected
- c-Myc protein expression in tumors (c-Myc; tumor, FIG. 5A): decreased dramatically
- survival of mice when added to Dox treatment ([1]; added to Dox 4 mg/kg ip once a week, day 25, FIG. 3A): 100%
- body weight loss when added to Dox treatment ([1]; added to Dox 4 mg/kg, FIG. 3B): significant attenuation of body weight loss
- Ki-67 positive (proliferating) cells in tumors ([1]; in combination with Dox, FIG. 3F): reduced the proliferating cells to a level significantly lower than any of the single drug treatments
- tumor volume of vehicle-treated group relative to treated group ([1]; in combination with Dox): 3 fold
- Ki-67 positive cells in tumors ([1]; single agent vs vehicle, FIGS. 3E, 3F): considerably more Ki-67 positive cells were detected in tumors of the vehicle-treated mice
- tumor volume of vehicle-treated group relative to treated group ([1]; single agent): 2 fold
- survival of mice until end of experiment (day 25) ([1]; single agent: AN446 25 mg/kg or AN7 50 mg/kg po thrice weekly, Dox 4 mg/kg ip once a week, FIG. 3A): 100%
- HO-1 expression in the heart (HO-1; co-treatment with Dox): increased the expression of this enzyme to a significantly higher level
- HO-1 mRNA in the heart, elevation of basal expression level (HO-1; co-treatment with Dox): 1.76±0.36 fold
- HO-1 expression in the heart (decrease) (HO-1; single agent, FIGS. 4D, 4E): did not significantly change
- VEGF expression in the heart (VEGF): elevated

Compound: CC(=O)O[C@H]1C(=O)[C@@]2(C)[C@H]([C@H](OC(=O)c3ccccc3)[C@]3(O)C[C@H](OC(=O)[C@H](O)[C@@H](NC(=O)c4ccccc4)c4ccccc4)C(C)=C1C3(C)C)[C@]1(OC(C)=O)CO[C@@H]1C[C@@H]2O [Paclitaxel, paclitaxel]
- expression of TLR4 (TLR4 [2]): paclitaxel-induced increase
- IC50 (MDA-231 cells; MDA-MB-231, MDA-231, paclitaxel in combination with AN446, read-out: Paclitaxel com IC50): 1.7 ± 0.01 nM
- IC50 (MDA-231 cells; MDA-MB-231, MDA-231, paclitaxel in combination with SAHA, read-out: Paclitaxel com IC50): 1.5 nM
- IC50 (MDA-231 cells; MDA-MB-231, MDA-231, paclitaxel in combination with valproic acid, read-out: Paclitaxel com IC50): 1.6 ± 0.01 nM
- IC50 (MDA-231 cells; MDA-MB-231, MDA-231, single agent, read-out: Paclitaxel IC50): 4.4 ± 0.2 nM
- IC50 ([3]; NCI-N87, paclitaxel in combination with AN446, read-out: Paclitaxel com IC50): 1.8 ± 0.2 nM
- IC50 ([3]; NCI-N87, single agent, read-out: Paclitaxel IC50): 4 nM
- IC50 (T47D cells; paclitaxel in combination with AN446, read-out: Paclitaxel com IC50): 2.8 ± 0.1 nM
- IC50 (T47D cells; paclitaxel in combination with SAHA, read-out: Paclitaxel com IC50): 2.3 ± 0.01 nM
- IC50 (T47D cells; paclitaxel in combination with valproic acid, read-out: Paclitaxel com IC50): 3.6 ± 0.1 nM
- IC50 (T47D cells; single agent, read-out: Paclitaxel IC50): 3.2 ± 0.1 nM
- expression of TNF-α (TNF-α): paclitaxel-induced increase
- expression of MCP-1 (MCP-1): paclitaxel-induced increase

Compound: O=C(CCCCCCC(=O)Nc1ccccc1)NO [SAHA, suberanilohydroxamic acid]
- IC50 (T47D cells; in combination with Dox, read-out: com IC50): 130 nM
- TLR4 expression in MDA-231 cells (TLR4 [4]): no apparent effect on TLR4 expression

Compound: Nc1ccccc1NC(=O)c1ccc(CNC(=O)OCc2cccnc2)cc1 [entinostat]
- IC50 (U251 cells): 2000 nM
- TLR4 expression in MDA-231 cells (TLR4 [4]): no apparent effect on TLR4 expression
